Entries after “also recorded” stand apart in the source; their conditions may differ.
Key:
[1] = system: transgenic mice homozygous for the G196A polymorphism and control wild-type mice; assay: anxiety-related behaviors in conflict/stress tests (open field, elevated plus maze, novelty induced hypophagia) after chronic fluoxetine; format: in vivo; conditions: chronic administration
Description: Second, we determined that these mice have increased anxiety-related behaviors as assessed by 3 conflict/stress tests (open field, elevated plus maze, novelty induced hypophagia). These tests for anxiety differ from those used in human studies in that the animals' anxiety-related behaviors are assessed after placement in a stressful environment.

[2] = system: BDNF^Met/Met, BDNF^+/− and wild-type mice; assay: open-field test after long-term fluoxetine; format: in vivo; conditions: fluoxetine orally 18 mg/kg of body weight per day for 21 days vs vehicle
Description: In the open-field test, percentage of time spent in the center in the absence (H2O) or presence of fluoxetine (drug) treatment was measured. […] All results are presented as means±SEM determined from analysis of eight mice per genotype (*P<0.05, **P<0.01). […] BDNF^Met/Met were treated orally with fluoxetine (18 mg/kg of body weight per day) or vehicle for 21 days before assessment in two tests: open field and novelty-induced hypophagia.

CNCCC(Oc1ccc(C(F)(F)F)cc1)c1ccccc1 (stereo not drawn) [fluoxetine]
anxiety-related behaviors ([1]; control wild-type mice): could robustly diminish
reversal of anxiety-related behaviors ([1]; transgenic mice homozygous for the G196A polymorphism): could not reverse
entries into the center ([2]; BDNF^Met/Met mice): blunted response
time spent in the center ([2]; BDNF^Met/Met mice, 18 mg/kg/day): blunted response; also recorded: Decreased response
entries into the center ([2]; wild-type mice): increase in entries into the center
time spent in the center ([2]; wild-type mice): significant increase
